Assay results as given in the supplement of paper PMC13380429.

Legend:
Conditions in all cases: 72 h
Caco-2 [1] = assay: cell viability relative to DMSO; higher = less toxic
Calu-3 [2] = assay: as above
HepG2 [3] = assay: as above
Caco-2 [4] = assay: relative viability EC50 (midpoint between 100% and the lowest measured viability); higher = less toxic
Calu-3 [5] = assay: as above
HepG2 [6] = assay: as above
Caco-2 [7] = assay: drug sensitivity score (DSS) for viability; higher = more toxic; extreme values may be limits of the assay
Calu-3 [8] = assay: as above
HepG2 [9] = assay: as above
U2OS [10] = assay: as above
Vero E6 [11] = assay: as above
U2OS [12] = assay: cell viability relative to DMSO; higher = less toxic
Vero E6 [13] = assay: as above
U2OS [14] = assay: relative viability EC50 (midpoint between 100% and the lowest measured viability); higher = less toxic

SMILES	cell viability (Caco-2 [1]; 1 nM) [%]	cell viability (Caco-2 [1]; 10 nM) [%]	cell viability (Caco-2 [1]; 100 nM) [%]	cell viability (Caco-2 [1]; 1000 nM) [%]	cell viability (Caco-2 [1]; 10000 nM) [%]	cell viability (Calu-3 [2]; 1 nM) [%]	cell viability (Calu-3 [2]; 10 nM) [%]	cell viability (Calu-3 [2]; 100 nM) [%]	cell viability (Calu-3 [2]; 1000 nM) [%]	cell viability (Calu-3 [2]; 10000 nM) [%]	cell viability (HepG2 [3]; 1 nM) [%]	cell viability (HepG2 [3]; 10 nM) [%]	cell viability (HepG2 [3]; 100 nM) [%]	cell viability (HepG2 [3]; 1000 nM) [%]	cell viability (HepG2 [3]; 10000 nM) [%]	relative viability EC50 (Caco-2 [4]) [µM]	relative viability EC50 (Calu-3 [5]) [µM]	relative viability EC50 (HepG2 [6]) [µM]	drug sensitivity score (Caco-2 [7])	drug sensitivity score (Calu-3 [8])	drug sensitivity score (HepG2 [9])	drug sensitivity score (U2OS [10])	drug sensitivity score (Vero E6 [11])	cell viability (U2OS [12]; 1 nM) [%]	cell viability (U2OS [12]; 10 nM) [%]	cell viability (U2OS [12]; 100 nM) [%]	cell viability (U2OS [12]; 1000 nM) [%]	cell viability (U2OS [12]; 10000 nM) [%]	cell viability (Vero E6 [13]; 1 nM) [%]	cell viability (Vero E6 [13]; 10 nM) [%]	cell viability (Vero E6 [13]; 100 nM) [%]	cell viability (Vero E6 [13]; 1000 nM) [%]	cell viability (Vero E6 [13]; 10000 nM) [%]	relative viability EC50 (U2OS [14]) [µM]
NS(=O)(=O)c1ccc(C(=O)O)cc1 [carzenide]	106	96.1	112	106	96.9	106	101	93.4	100	94.2	97.6	99.8	102	102	94.9	> 10	> 10	> 10	0	0	0													
CCOP(=S)(OCC)Oc1ccc2c(C)c(Cl)c(=O)oc2c1 [coumophos]																				0	0	0	0											
CC(=O)C1=C(O)[C@@H]2[C@H]3c4c[nH]c5cccc(c45)C[C@H]3C(C)(C)N2C1=O [cyclopiazonic-acid]	99.9	106	107	106	81.9	105	98.1	102	95.7	98.8	110	105	103	97.2	64.3	> 10	> 10		0.3	0	2.1	0.4	2.4	102	100	100	96.2	86.1	100	96.5	94.3	95.3	65.6	> 10
O=C(NO)c1ccc(O)c(O)c1 [didox]	101	96.9	100	86.7	104	111	110	96.6	103	107	102	102	93.3	118	93.2	> 10	> 10	> 10	0	0	0													
CCS(=O)(=O)c1ccc2oc(-c3ccc4ccccc4c3)nc2c1 [ezutromid]	103	89	91.4	91.8	90.2						99.8	121	102	102	94.3	> 10		> 10	0.7		0	0		101	97.7	105	97.4	97.2						> 10
